From patent US20260021108A1, “USE OF INHIBITORS OF THE HIPPO SIGNALLING PATHWAY FOR THE TREATMENT OF CHRONIC NEPHROPATHIES” (INSTITUT NATIONAL DE LA SANTÉ ET DE LA RECHERCHE MÉDICALE, priority 2022, published 2026)

Assays:
mIMCD-3 renal cells [1] = test: NPH-cytokine signature mRNA abundance (qRT-PCR) in confluent mIMCD-3 cells; type: cell-based, Mouse; conditions: n=3
Procedure: (§1) Mouse inner medullary collecting duct (mIMCD-3) cells were grown in DMEM/F-12 (1:1, GIBCO, 21331-020) supplemented with 10% FBS, 1% penicillin-streptomycin and 2 mM L-Glutamine (GIBCO, 25030-024). A total of 50,000 cells/cm^2 were seeded for 3 days on 12 well plate. Confluent mIMCD-3 cells were stimulated with 5 μM XMUMP-1 (Selleckchem, S8334), or 10 μM Lats-IN-1 (MedChemExpress, HY-138489) or 0.04% DMSO. For bacteria experiment, mIMCD-3 cells were starved overnight prior stimulation and then stimulated for 6 hours with 5 μM XMU-MP-1 or 0.04% DMSO with or without 1.108/mL UPEC.
(§2) Total RNAs were obtained from cells using RNeasy Mini Kit (Qiagen) and reverse transcribed using High Capacity cDNA Reverse Transcription Kit (Applied Biosystems) according to the manufacturer's protocol. Quantitative PCR were performed with iTaq™ Universal SYBR® Green Supermix (Bio-Rad) on a CFX384 C1000 Touch (Bio-Rad). Hprt, Sdha, Gapdh and Ppia were used as normalization controls. Each biological replicate was measured in technical duplicates.
Data are expressed as means+/−standard deviation. Differences between groups were evaluated using unpaired t test when only 2 groups were evaluated or one-way ANOVA followed, when significant (P<0.05), by the Tukey-Kramer test. The statistical analysis was performed using GraphPad Prism V8 software.

MDCK renal cells [2] = test: Ccl2 and Cxcl10 mRNA response to UPEC in confluent MDCK cells; type: cell-based, Dog; conditions: 6 hours, n=5
Procedure: (§3) Uropathogen E. coli (UTI89 strain, UPEC) bacteria strains were grown as previously described (Zychlinsky Scharff et al., 2019). Inactivation of bacteria was performed on bacteria resuspended at a concentration of 109/ml in PBS and heated at 60° C. for one hour.
Madin-Darby canine kidney cells (MDCK, kind gift from Prof. Kai Simons, MPI-CBG, Dresden, Germany) were cultured using DMEM (GIBCO, 41966-029) supplemented with 10% FBS (GIBCO, 10270-106) and 1% penicillin-streptomycin (GIBCO, 15140-122). A total of 200,000 cells/cm^2 were seeded for 10 days on 12 well plate (Corning, 353043). Confluent MDCK cells were stimulated for 6 hours with 5 μM XMU-MP-1 (Selleckchem, S8334) or 0.04% DMSO. […]
as §2, with “Hprt, Sdha, Gapdh and Ppia were used as normalization controls.” left out
(§4) Data are expressed as means+/−standard deviation. Differences between groups were evaluated using unpaired t test when only 2 groups were evaluated or one-way ANOVA followed, when significant (P<0.05), by the Tukey-Kramer test. […]

mIMCD-3 renal cells [3] = test: Inflammatory cytokine mRNA response to heat inactivated uropathogenic Escherichia coli (UPEC) in mIMCD-3 cells; type: cell-based, Mouse; conditions: confluent mIMCD-3 cells, 5 μM XMU-MP-1 and heat inactivated UPEC, 6 hours, n=7-10
Procedure: as §3
as §1, with “For bacteria experiment, mIMCD-3 cells were starved overnight prior stimulation and then stimulated for 6 hours with 5 μM XMU-MP-1 or 0.04% DMSO with or without 1.108/mL UPEC.” left out
as §2, with “Hprt, Sdha, Gapdh and Ppia were used as normalization controls.” left out
as §4

MDCK renal cells [4] = test: NPH-cytokine signature mRNA abundance (qRT-PCR) in confluent MDCK cells; type: cell-based, Dog; conditions: 5 μM XMU-MP-1, 6 hours, n=3-6
Procedure: Madin-Darby canine kidney cells (MDCK, kind gift from Prof. Kai Simons, MPI-CBG, Dresden, Germany) were cultured using DMEM (GIBCO, 41966-029) supplemented with 10% FBS (GIBCO, 10270-106) and 1% penicillin-streptomycin (GIBCO, 15140-122). A total of 200,000 cells/cm^2 were seeded for 10 days on 12 well plate (Corning, 353043). Confluent MDCK cells were stimulated for 6 hours with 5 μM XMU-MP-1 (Selleckchem, S8334) or 0.04% DMSO. For bacteria experiment, MDCK cells were starved overnight prior stimulation and then stimulated for 6 hours with 5 μM XMU-MP-1 or 10 μM Lats-IN-1 (MedChemExpress, HY-138489) with or without 1.108/mL UPEC. All cells were regularly tested for mycoplasma contamination and were mycoplasma-free.
as §2, §4

Structure (SMILES) | NPH-cytokine signature (Ctgf, Cyr61, Ccl2, Ccl5, Cx3cl1, Cxcl1, Cxcl10, Cxcl16, Cxcl17, Il1rn, Il33, Il34, Lgals9 mRNA abundance) (mIMCD-3 renal cells [1]; 10 μM Lats-IN-1, 6 hours) | inflammatory response to bacteria (Ccl2 and Cxcl10 mRNA abundance) (MDCK renal cells [2]; 10 μM Lats-IN-1 and UPEC) | inflammatory response to uropathogenic bacteria (cytokine mRNA abundance) (mIMCD-3 renal cells [3]) | NPH-cytokine signature (Ctgf, Cyr61, Ccl2, Ccl5, Cx3cl1, Cxcl10, Cxcl16, Cxcl17, Il1rn, Il34 mRNA abundance) (MDCK renal cells [4]) | NPH-cytokine signature (Ctgf, Cyr61, Ccl2, Ccl5, Cx3cl1, Cxcl1, Cxcl10, Cxcl16, Cxcl17, Il1rn, Il33, Il34, Lgals9 mRNA abundance) (mIMCD-3 renal cells [1]; 5 μM XMU-MP-1, 6 hours) | inflammatory response to bacteria (Ccl2 and Cxcl10 mRNA abundance) (MDCK renal cells [2]; 5 μM XMU-MP-1 and UPEC)
O=C(N=c1sccn1Cc1ccccc1)c1c[nH]c2ncccc12 [Lats-IN-1, N-(3-benzylthiazol-2(3H)-ylidene)-1H-pyrrolo[2,3-b]pyridine-3-carboxamide] | suppresses partially NPH-cytokine signature | reduces NPH-cytokine signature and inflammatory response to bacteria | – | – | – | –
CN1C(=O)c2sccc2N(C)c2nc(Nc3ccc(S(N)(=O)=O)cc3)ncc21 [XMU-MP-1, 4-[(6, 10-Dihydro-5, 10-dimethyl-6-oxo-5H-pyrimido[5,4-b]thieno[3,2-e][1,4]diazepin-2-yl)amino]benzenesulfonamide] | – | – | blunts inflammatory response to uropathogenic bacteria | reduces NPH-cytokine signature | suppresses NPH-cytokine signature | reduces NPH-cytokine signature and inflammatory response to bacteria
